Experimental data published in US12545668B2, “Cyclic amine derivative as agent for promoting advillin function, and novel cyclic amine derivative and pharmaceutical use thereof” (Toray Industries, Inc., priority 2018, dated 2026).

Tests used:
[1] = Specific binding of 3H-labeled compound to membrane fraction prepared from rat brainstem; conditions: 3H-labeled compound of Example 7, 37° C., 1 hour; relative to dorsal root ganglion
Procedure: (§1) A binding property of a ^3H-labeled cyclic amine derivative (I) to each of membrane fractions prepared from various tissues of a rat was evaluated, and thus, a tissue containing a molecular target of the cyclic amine derivative (I) was clarified.
(§2) As the cyclic amine derivative (I), the compound of Example 7 was used.
(§3) Male SD rats (manufactured by Charles River Laboratories Japan, Inc.) of 7 weeks old were used. Rats were anesthetized with isoflurane, and euthanized by exsanguination from the abdominal aorta using a syringe having an inner wall treated with a heparin sodium injection (manufactured by AY Pharmaceuticals Co., Ltd.). […]
(§4) A homogenate sample of each tissue thus collected was prepared, using a homogenizer, by adding a homogenize buffer (sucrose (1 M), Tris-HCl (0.5 M), and 1× protease inhibitor cocktail (manufactured by Sigma Aldrich), pH 7.6) to the collected tissue. […] The resultant supernatant was ultracentrifuged at 100,000×g at 4° C. for 60 minutes, and the thus obtained precipitate was suspended in Krebs-Ringer bicarbonate buffer (manufactured by Sigma Aldrich) to quantitatively determine the amount of protein using a BCA protein assay kit (manufactured by Thermo Fisher Scientific K.K.). […]

[2] = Specific binding of 3H-labeled compound to membrane fraction prepared from rat sciatic nerve; conditions: 3H-labeled compound of Example 7, 37° C., 1 hour; relative to dorsal root ganglion
Procedure: as §1, §2, §3, §4

Q: For CN(C)C1CCN(C(=O)C[C@H](O)c2nccn2C)CC1 [Example 7, (S)-1-(4-(dimethylamino)piperidin-1-yl)-3-hydroxy-3-(1-methyl-1H-imidazol-2-yl)propan-1-one], which “specific binding to the membrane fraction prepared from the brainstem, as % of the specific binding to the dorsal root ganglion membrane fraction” value [1] is on record?
A: 4.2%

Q: And the “specific binding to the membrane fraction prepared from the sciatic nerve, as % of the specific binding to the dorsal root ganglion membrane fraction” value [2]?
A: 42%
